According to PubChem BioAssay (NCI):
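All cell lines were grown in 96-well plates and treated with compound for 48 hours. GI50 = concentration required for 50% inhibition of growth. TGI denotes the concentration required for complete inhibition of growth.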

Key:
Experiment in all cases: NCI anticancer screen, dose series, 48 h
RXF 393 renal = tested on: RXF 393 renal
MALME-3M melanoma = tested on: MALME-3M melanoma
NCI-H23 lung = tested on: NCI-H23 lung
PC-3 prostate = tested on: PC-3 prostate
HCT-15 colon = tested on: HCT-15 colon
SNB-75 CNS = tested on: SNB-75 CNS
M14 melanoma = tested on: M14 melanoma
786-0 renal = tested on: 786-0 renal
SNB-19 CNS = tested on: SNB-19 CNS
SK-MEL-2 melanoma = tested on: SK-MEL-2 melanoma
A498 renal = tested on: A498 renal
DU-145 prostate = tested on: DU-145 prostate
SK-MEL-28 melanoma = tested on: SK-MEL-28 melanoma
SF-539 CNS = tested on: SF-539 CNS
SN12C renal = tested on: SN12C renal
NCI-H522 lung = tested on: NCI-H522 lung
HCT-116 colon = tested on: HCT-116 colon
COLO 205 colon = tested on: COLO 205 colon
OVCAR-8 ovarian = tested on: OVCAR-8 ovarian
UACC-62 melanoma = tested on: UACC-62 melanoma
NCI-H226 lung = tested on: NCI-H226 lung
EKVX NSCLC = tested on: EKVX NSCLC
A549 NSCLC = tested on: A549 NSCLC
SK-MEL-5 melanoma = tested on: SK-MEL-5 melanoma
HCC-2998 colon = tested on: HCC-2998 colon
HS 578T breast = tested on: HS 578T breast
CAKI-1 renal = tested on: CAKI-1 renal
MDA-MB-435 = tested on: MDA-MB-435
MCF7 breast = tested on: MCF7 breast
MDA-MB-231 breast = tested on: MDA-MB-231 breast
ACHN renal = tested on: ACHN renal
T-47D breast = tested on: T-47D breast
LOX IMVI melanoma = tested on: LOX IMVI melanoma
SW-620 colon = tested on: SW-620 colon
OVCAR-5 ovarian = tested on: OVCAR-5 ovarian
UO-31 renal = tested on: UO-31 renal
SK-OV-3 ovarian = tested on: SK-OV-3 ovarian
K-562 leukemia = tested on: K-562 leukemia
UACC-257 melanoma = tested on: UACC-257 melanoma
NCI-H460 lung = tested on: NCI-H460 lung
OVCAR-4 ovarian = tested on: OVCAR-4 ovarian
RPMI-8226 leukemia = tested on: RPMI-8226 leukemia
KM12 colon = tested on: KM12 colon
SF-295 CNS = tested on: SF-295 CNS
BT-549 breast = tested on: BT-549 breast
HOP-92 NSCLC = tested on: HOP-92 NSCLC
CCRF-CEM leukemia = tested on: CCRF-CEM leukemia
MOLT-4 leukemia = tested on: MOLT-4 leukemia
U251 CNS = tested on: U251 CNS
TK-10 renal = tested on: TK-10 renal
HOP-62 NSCLC = tested on: HOP-62 NSCLC
IGROV1 ovarian = tested on: IGROV1 ovarian
OVCAR-3 ovarian = tested on: OVCAR-3 ovarian
SF-268 CNS = tested on: SF-268 CNS
HT29 colon = tested on: HT29 colon
NCI/ADR-RES ovarian = tested on: NCI/ADR-RES ovarian

Compound: Cc1ccc2[nH]c(C(=O)NN3C(=O)CSC34CCCC(C)C4)c(-c3ccccc3)c2c1 (configuration not stated)
- GI50 (RXF 393 renal): 5.85 µM
- TGI (RXF 393 renal): 20.3 µM
- GI50 (MALME-3M melanoma): 18.3 µM
- TGI (MALME-3M melanoma): 34.7 µM
- GI50 (NCI-H23 lung): 20 µM
- TGI (NCI-H23 lung): 36 µM
- GI50 (PC-3 prostate): 14.2 µM
- TGI (PC-3 prostate): 29.6 µM
- GI50 (HCT-15 colon): 18.3 µM
- TGI (HCT-15 colon): 37.2 µM
- GI50 (SNB-75 CNS): 17.1 µM
- TGI (SNB-75 CNS): 34.6 µM
- GI50 (M14 melanoma): 18.8 µM
- TGI (M14 melanoma): 35.5 µM
- GI50 (786-0 renal): 19.6 µM
- TGI (786-0 renal): 39.3 µM
- GI50 (SNB-19 CNS): 18.6 µM
- TGI (SNB-19 CNS): 36.6 µM
- GI50 (SK-MEL-2 melanoma): 9.12 µM
- TGI (SK-MEL-2 melanoma): 23.1 µM
- GI50 (A498 renal): 17.5 µM
- TGI (A498 renal): 36.3 µM
- GI50 (DU-145 prostate): 18.7 µM
- TGI (DU-145 prostate): 42.4 µM
- GI50 (SK-MEL-28 melanoma): 19.7 µM
- TGI (SK-MEL-28 melanoma): 37.6 µM
- GI50 (SF-539 CNS): 21 µM
- TGI (SF-539 CNS): 39.4 µM
- GI50 (SN12C renal): 16.6 µM
- TGI (SN12C renal): 32.2 µM
- GI50 (NCI-H522 lung): 11.9 µM
- TGI (NCI-H522 lung): 25.6 µM
- GI50 (HCT-116 colon): 14.6 µM
- TGI (HCT-116 colon): 31 µM
- GI50 (COLO 205 colon): 17.5 µM
- TGI (COLO 205 colon): 35.4 µM
- GI50 (OVCAR-8 ovarian): 15.6 µM
- TGI (OVCAR-8 ovarian): 32.9 µM
- GI50 (UACC-62 melanoma): 13.9 µM
- TGI (UACC-62 melanoma): 29.2 µM
- GI50 (NCI-H226 lung): 18.4 µM
- TGI (NCI-H226 lung): 35.2 µM
- GI50 (EKVX NSCLC): 24.2 µM
- TGI (EKVX NSCLC): 58.8 µM
- GI50 (A549 NSCLC): 15.2 µM
- TGI (A549 NSCLC): 30.5 µM
- GI50 (SK-MEL-5 melanoma): 17.4 µM
- TGI (SK-MEL-5 melanoma): 34.9 µM
- GI50 (HCC-2998 colon): 14.5 µM
- TGI (HCC-2998 colon): 28.8 µM
- GI50 (HS 578T breast): 28.2 µM
- TGI (HS 578T breast): 68 µM
- GI50 (CAKI-1 renal): 15.5 µM
- TGI (CAKI-1 renal): 33.8 µM
- GI50 (MDA-MB-435): 18 µM
- TGI (MDA-MB-435): 34.8 µM
- GI50 (MCF7 breast): 15.4 µM
- TGI (MCF7 breast): 38.5 µM
- GI50 (MDA-MB-231 breast): 17.2 µM
- TGI (MDA-MB-231 breast): 34 µM
- GI50 (ACHN renal): 18.3 µM
- TGI (ACHN renal): 36.1 µM
- GI50 (T-47D breast): 20.3 µM
- TGI (T-47D breast): 55.2 µM
- GI50 (LOX IMVI melanoma): 19.8 µM
- TGI (LOX IMVI melanoma): 37.1 µM
- GI50 (SW-620 colon): 25.6 µM
- TGI (SW-620 colon): 67.1 µM
- GI50 (OVCAR-5 ovarian): 18.3 µM
- TGI (OVCAR-5 ovarian): 34.8 µM
- GI50 (UO-31 renal): 0.0274 µM
- TGI (UO-31 renal): 10.6 µM
- GI50 (SK-OV-3 ovarian): 21.5 µM
- TGI (SK-OV-3 ovarian): 48.3 µM
- GI50 (K-562 leukemia): 12.7 µM
- TGI (K-562 leukemia): 39.2 µM
- GI50 (UACC-257 melanoma): 19.2 µM
- TGI (UACC-257 melanoma): 35 µM
- GI50 (NCI-H460 lung): 18.1 µM
- TGI (NCI-H460 lung): 38.4 µM
- GI50 (OVCAR-4 ovarian): 18.4 µM
- TGI (OVCAR-4 ovarian): 40.2 µM
- GI50 (RPMI-8226 leukemia): 13.7 µM
- TGI (RPMI-8226 leukemia): 31.5 µM
- GI50 (KM12 colon): 16.2 µM
- TGI (KM12 colon): 34.3 µM
- GI50 (SF-295 CNS): 17.2 µM
- TGI (SF-295 CNS): 33.5 µM
- GI50 (BT-549 breast): 19.5 µM
- TGI (BT-549 breast): 36.5 µM
- GI50 (HOP-92 NSCLC): 13.1 µM
- TGI (HOP-92 NSCLC): 28.3 µM
- GI50 (CCRF-CEM leukemia): 10.8 µM
- TGI (CCRF-CEM leukemia): 31.8 µM
- GI50 (MOLT-4 leukemia): 8.77 µM
- TGI (MOLT-4 leukemia): 31.9 µM
- GI50 (U251 CNS): 17.3 µM
- TGI (U251 CNS): 33.6 µM
- GI50 (TK-10 renal): 17.2 µM
- TGI (TK-10 renal): 34.7 µM
- GI50 (HOP-62 NSCLC): 19.2 µM
- TGI (HOP-62 NSCLC): 35.1 µM
- GI50 (IGROV1 ovarian): 0.0485 µM
- TGI (IGROV1 ovarian): 12 µM
- GI50 (OVCAR-3 ovarian): 13.8 µM
- TGI (OVCAR-3 ovarian): 30.3 µM
- GI50 (SF-268 CNS): 15.6 µM
- TGI (SF-268 CNS): 32.5 µM
- GI50 (HT29 colon): 13.8 µM
- TGI (HT29 colon): 29.4 µM

Compound: CCCC1CCC(O)(C(C)(O)C(=O)NC2C(=O)N3NCCCC3C(=O)N(O)C(C)C(=O)N3NCCCC3C(=O)N3NCC(O)CC3C(=O)NC(C)C(=O)OC2C(C)C)OC1CC (configuration not stated)
- GI50 (RXF 393 renal): > 25 µM
- TGI (RXF 393 renal): > 25 µM
- GI50 (NCI-H522 lung): > 25 µM
- TGI (NCI-H522 lung): > 25 µM
- GI50 (NCI-H226 lung): > 25 µM
- TGI (NCI-H226 lung): > 25 µM
- TGI (NCI/ADR-RES ovarian): > 5.53 µM
